Results as given in US20050192279A1, “Pyridazinones as antagonists of alpha4 integrins” (priority 2004, published 2005).
Where two headings read alike, the source gives them in different places.

Legend:
[1] = molecular target: T1, α4β1 (Homo sapiens, UniProt P05556+P13612); assay: Ramos Cell Adhesion Assay (α4β1 Mediated Adhesion/VCAM-1); type: cell-based
T1 construct: Ramos Cell Adhesion Assay (α4β1 Mediated Adhesion/VCAM-1); endogenous in cells; host or cells: Ramos cells
Method in brief: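 Plates coated overnight at 4° C with recombinant hVCAM-1 at 4.0 μg/mL, pH 9.0, then blocked in PBS/1% BSA. Calcein AM-labeled Ramos cells added with compounds and left to adhere 1 h at room temperature; after washing, cells lysed in 1 M Tris pH 8.0/1% SDS.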

[2] = molecular target: T2, human α4β7 integrin (Homo sapiens, UniProt P13612+P26010); assay: α4β7-K562 Cell Adhesion Assay (α4β7 Mediated Adhesion/MAdCAM-1); type: cell-based
T2 construct: expressed in transfected cells; host or cells: K562 cells, stably transfected
T2 sequence (P13612 34-1032): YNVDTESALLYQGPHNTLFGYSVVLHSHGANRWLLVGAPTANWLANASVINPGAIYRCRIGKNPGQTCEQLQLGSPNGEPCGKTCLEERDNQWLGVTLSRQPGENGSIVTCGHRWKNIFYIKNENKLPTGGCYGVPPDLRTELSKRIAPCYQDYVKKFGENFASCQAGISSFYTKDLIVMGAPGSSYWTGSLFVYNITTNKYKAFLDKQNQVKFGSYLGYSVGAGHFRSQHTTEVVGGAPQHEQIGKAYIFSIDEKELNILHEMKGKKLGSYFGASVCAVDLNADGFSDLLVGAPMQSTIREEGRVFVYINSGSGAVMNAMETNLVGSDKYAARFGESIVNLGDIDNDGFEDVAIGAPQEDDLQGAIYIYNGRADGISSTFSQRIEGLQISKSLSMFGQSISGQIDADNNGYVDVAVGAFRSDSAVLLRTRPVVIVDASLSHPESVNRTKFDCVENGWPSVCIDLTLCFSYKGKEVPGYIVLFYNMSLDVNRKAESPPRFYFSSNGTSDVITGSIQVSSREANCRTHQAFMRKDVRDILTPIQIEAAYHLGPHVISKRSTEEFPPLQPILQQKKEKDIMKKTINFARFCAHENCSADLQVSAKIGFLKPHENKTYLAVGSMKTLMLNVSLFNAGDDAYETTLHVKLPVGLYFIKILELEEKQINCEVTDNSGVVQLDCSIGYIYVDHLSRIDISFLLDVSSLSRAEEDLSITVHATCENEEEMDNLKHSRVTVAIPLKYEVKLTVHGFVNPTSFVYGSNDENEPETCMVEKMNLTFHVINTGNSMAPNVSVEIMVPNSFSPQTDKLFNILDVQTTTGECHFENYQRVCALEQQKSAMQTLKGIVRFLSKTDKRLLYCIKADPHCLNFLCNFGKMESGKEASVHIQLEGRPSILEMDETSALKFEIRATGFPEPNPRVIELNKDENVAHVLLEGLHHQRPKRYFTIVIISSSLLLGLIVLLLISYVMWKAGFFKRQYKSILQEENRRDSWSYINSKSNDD
T2 sequence (P26010 20-798): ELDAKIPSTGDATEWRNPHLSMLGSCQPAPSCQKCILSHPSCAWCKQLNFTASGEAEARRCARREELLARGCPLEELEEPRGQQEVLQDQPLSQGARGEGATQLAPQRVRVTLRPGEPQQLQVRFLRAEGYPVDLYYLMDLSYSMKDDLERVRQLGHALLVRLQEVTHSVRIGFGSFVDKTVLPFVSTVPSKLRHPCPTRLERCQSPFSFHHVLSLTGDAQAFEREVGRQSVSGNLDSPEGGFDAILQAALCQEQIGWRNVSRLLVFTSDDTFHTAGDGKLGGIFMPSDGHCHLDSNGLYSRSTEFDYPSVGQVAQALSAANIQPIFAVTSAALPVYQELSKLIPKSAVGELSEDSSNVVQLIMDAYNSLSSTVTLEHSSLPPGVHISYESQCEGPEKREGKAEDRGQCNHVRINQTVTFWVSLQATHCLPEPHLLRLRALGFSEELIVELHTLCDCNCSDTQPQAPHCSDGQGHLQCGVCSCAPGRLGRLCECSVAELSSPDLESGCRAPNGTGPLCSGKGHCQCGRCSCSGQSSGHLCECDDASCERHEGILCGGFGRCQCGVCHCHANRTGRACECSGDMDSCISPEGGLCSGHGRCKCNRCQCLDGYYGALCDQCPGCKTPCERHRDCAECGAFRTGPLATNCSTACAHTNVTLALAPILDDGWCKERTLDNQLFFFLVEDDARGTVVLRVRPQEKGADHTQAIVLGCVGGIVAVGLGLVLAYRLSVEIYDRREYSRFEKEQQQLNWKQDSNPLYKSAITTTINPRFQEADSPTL
Method in brief: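 Anti-FLAG plates coated 1 h at 4° C with FLAG-hMAdCAM-1 in PBS pH 7.4, 1% BSA, 1 mM Mn2+. Stably transfected K562 cells expressing human α4β7, labelled with CFDA-SE, adhered with compound 1 h at room temperature. After four washes, bound cells lysed in 0.1 M NaOH for fluorescence read-out.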

[3] = Ramos cell adhesion to hVCAM-1, read-out: α4β1 IC50
[4] = α4β7-K562 cell adhesion to hMAdCAM-1, read-out: α4β7 IC50

T1 sequence (P05556 21-798, one chain of several): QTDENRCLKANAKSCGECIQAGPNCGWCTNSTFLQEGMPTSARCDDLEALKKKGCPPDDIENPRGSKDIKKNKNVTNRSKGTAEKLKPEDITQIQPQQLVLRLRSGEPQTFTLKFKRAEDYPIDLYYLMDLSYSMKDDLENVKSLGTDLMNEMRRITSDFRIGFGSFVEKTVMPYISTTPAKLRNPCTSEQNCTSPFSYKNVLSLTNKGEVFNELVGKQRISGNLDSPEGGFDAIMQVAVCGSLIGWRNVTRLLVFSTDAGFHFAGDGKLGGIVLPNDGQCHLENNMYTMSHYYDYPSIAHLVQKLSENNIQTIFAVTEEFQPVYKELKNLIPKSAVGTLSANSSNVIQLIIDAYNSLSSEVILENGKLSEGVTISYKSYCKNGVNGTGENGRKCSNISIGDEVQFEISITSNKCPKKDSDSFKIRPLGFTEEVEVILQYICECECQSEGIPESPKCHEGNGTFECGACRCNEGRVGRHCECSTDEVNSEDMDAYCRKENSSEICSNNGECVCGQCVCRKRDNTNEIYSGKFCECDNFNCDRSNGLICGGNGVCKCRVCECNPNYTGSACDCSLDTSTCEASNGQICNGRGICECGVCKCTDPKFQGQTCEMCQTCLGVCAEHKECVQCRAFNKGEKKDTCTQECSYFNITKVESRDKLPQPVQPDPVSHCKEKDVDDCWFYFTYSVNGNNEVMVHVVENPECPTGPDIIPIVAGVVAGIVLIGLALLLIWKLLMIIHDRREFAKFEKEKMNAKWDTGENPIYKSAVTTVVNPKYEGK

SMILES	IC50 [1, 3]	IC50 [2, 4]	IC50 ([1]; α4β1 IC50, Ramos cell adhesion to hVCAM-1)	IC50 ([2]; α4β7 IC50, α4β7-K562 cell adhesion to hMAdCAM-1)
CN(C)c1cnn(C(C)(C)C)c(=O)c1-c1ccc(C[C@H](NC(=O)c2c(Cl)cccc2Cl)C(=O)O)cc1 [Cpd 155]	> 1000 nM	332 nM	–	–
CNc1cnn(C)c(=O)c1-c1ccc(C[C@H](NC(=O)c2c(Cl)cccc2Cl)C(=O)O)cc1 [Cpd 156]	> 5000 nM	339 nM	–	–
COc1cnn(C)c(=O)c1-c1ccc(C[C@H](NC(=O)CN(C)C(=O)OC(C)(C)C)C(=O)O)cc1 [Cpd 157]	> 5000 nM	353 nM	–	–
COc1cnn(C)c(=O)c1-c1ccc(C[C@H](NC(=O)C(N)C(C)C)C(=O)O)cc1 (stereo partly drawn) [Cpd 159]	> 5000 nM	363 nM	–	–
CC(C)(C)n1ncc(-n2cncn2)c(-c2ccc(C[C@H](NC(=O)c3c(Cl)cccc3Cl)C(=O)O)cc2)c1=O [Cpd 160]	611 nM	364 nM	–	–
Cn1ncc(NCCCl)c(-c2ccc(C[C@H](NC(=O)c3c(Cl)cccc3Cl)C(=O)O)cc2)c1=O [Cpd 162]	–	–	> 5000 nM	408 nM
COc1cnn(C)c(=O)c1-c1ccc(C[C@H](NC(=O)c2cc(=O)[nH]c(=O)[nH]2)C(=O)O)cc1 [Cpd 163]	> 5000 nM	429 nM	–	–
COc1cnn(C)c(=O)c1-c1ccc(C[C@H](NC(=O)C2CCN(C(=O)OCc3ccccc3)CC2)C(=O)O)cc1 [Cpd 164]	> 5000 nM	457 nM	–	–
COc1cnn(CCN2CCOCC2)c(=O)c1-c1ccc(C[C@H](NC(=O)[C@H](NC(=O)OC(C)(C)C)[C@H](C)O)C(=O)O)cc1 [Cpd 167]	> 5000 nM	480 nM	–	–
O=C(N[C@@H](Cc1ccc(-c2c(O)cn[nH]c2=O)cc1)C(=O)O)c1c(Cl)cccc1Cl [Cpd 168]	> 1000 nM	490 nM	–	–
COc1cnn(C)c(=O)c1-c1ccc(C[C@H](NC(=O)c2ccc(CO)cc2)C(=O)O)cc1 [Cpd 170]	2810 nM	514 nM	–	–
COc1cnn(C)c(=O)c1-c1ccc(C[C@H](NC(=O)OCC(C)(C)C)C(=O)O)cc1 [Cpd 171]	> 5000 nM	536 nM	–	–
COc1cnn(C)c(=O)c1-c1ccc(C[C@H](NC(=O)OCc2ccccc2)C(=O)O)cc1 [Cpd 172, (S)-2-Benzyloxycarbonylamino-3-[4-(5-methoxy-2-methyl-3-oxo-2,3-dihydro-pyridazin-4-yl)-phenyl]-propionic acid]	> 5000 nM	570 nM	–	–
COc1cnn(C)c(=O)c1-c1ccc(C[C@H](NC(=O)CN(C)C)C(=O)O)cc1 [Cpd 173]	> 5000 nM	575 nM	–	–
COc1cnn(C)c(=O)c1-c1ccc(C[C@H](NC(=O)OCC(C)C)C(=O)O)cc1 [Cpd 175]	> 5000 nM	591 nM	–	–
COc1cnn(C)c(=O)c1-c1ccc(C[C@H](NC(=O)C2(NC(=O)OC(C)(C)C)CC2)C(=O)O)cc1 [Cpd 177]	> 5000 nM	163 nM	–	–
COc1cnn(CCN2CCOCC2)c(=O)c1-c1ccc(C[C@H](NC(=O)[C@H](NC(C)C)C(C)C)C(=O)O)cc1 [Cpd 179]	> 5000 nM	721 nM	–	–

SMILES	IC50 [1, 3]	IC50 [2, 4]	IC50 ([1]; α4β1 IC50, Ramos cell adhesion to hVCAM-1)	IC50 ([2]; α4β7 IC50, α4β7-K562 cell adhesion to hMAdCAM-1)
COc1cnn(C)c(=O)c1-c1ccc(C[C@H](NC(=O)OC23CC4CC(CC(C4)C2)C3)C(=O)O)cc1 [Cpd 180]	> 5000 nM	731 nM	–	–
COc1cnn(C)c(=O)c1-c1ccc(CC(NC(=O)C(N)C(C)C)C(=O)O)cc1 (stereo not drawn) [Cpd 181, 2-(2-Amino-3-methyl-butyrylamino)-3-[4-(5-methoxy-2-methyl-3-oxo-2,3-dihydro-pyridazin-4-yl)-phenyl]-propionic acid]	> 5000 nM	750 nM	–	–
COC(=O)[C@H](Cc1ccc(-c2c(OC)cnn(C)c2=O)cc1)NC(=O)[C@@H]1C2CCC(CC2)N1C(=O)CCc1ccccc1 [Cpd 182]	> 1000 nM	785 nM	–	–
COc1cnn(C)c(=O)c1-c1ccc(C[C@H](NC(=O)OC(C)C)C(=O)O)cc1 [Cpd 184]	> 5000 nM	813 nM	–	–
COc1cnn(C)c(=O)c1-c1ccc(C[C@H](NC(=O)C(C)(C)O)C(=O)O)cc1 [Cpd 185]	> 5000 nM	817 nM	–	–
COc1cnn(C)c(=O)c1-c1ccc(C[C@H](NC(=O)C2(C(=O)OC(C)(C)C)CCOCC2)C(=O)O)cc1 [Cpd 186]	1530 nM	842 nM	–	–
COc1cnn(C)c(=O)c1-c1ccc(C[C@H](NC(=O)c2n[nH]c3ccccc23)C(=O)O)cc1 [Cpd 187]	> 5000 nM	865 nM	–	–
COc1cc(N)c(Cl)cc1C(=O)N[C@@H](Cc1ccc(-c2c(OC)cnn(C)c2=O)cc1)C(=O)O [Cpd 188]	> 5000 nM	922 nM	–	–
COc1cnn(C)c(=O)c1-c1ccc(C[C@H](NC(=O)[C@@H](NC2CCCCC2)C(C)C)C(=O)O)cc1 [Cpd 189]	> 5000 nM	937 nM	–	–
Cn1ncc(N)c(-c2ccc(C[C@H](NC(=O)OC(C)(C)C)C(=O)O)cc2)c1=O [Cpd 190]	> 5000 nM	979 nM	–	–
COc1cnn(C)c(=O)c1-c1ccc(C[C@H](NC(=O)c2cccnc2O)C(=O)O)cc1 [Cpd 191]	> 5000 nM	999 nM	–	–
COc1cnn(C)c(=O)c1-c1ccc(C[C@H](NC(=O)c2cccn(C)c2=O)C(=O)O)cc1 [Cpd 193]	> 5000 nM	1160 nM	–	–
COc1cnn(CCO)c(=O)c1-c1ccc(C[C@@H](CO)NC(=O)c2c(Cl)cccc2Cl)cc1 [Cpd 194]	> 5000 nM	1220 nM	–	–
Cc1ccc(Oc2cnn(C(C)(C)C)c(=O)c2-c2ccc(C[C@H](NC(=O)c3c(Cl)cccc3Cl)C(=O)O)cc2)cc1 [Cpd 196, (S)-3-[4-(2-tert-Butyl-3-oxo-5-p-tolyloxy-2,3-dihydro-pyridazin-4-yl)-phenyl]-2-(2,6-dichloro-benzoylamino)-propionic acid]	> 5000 nM	1290 nM	–	–
Nc1cnn(-c2ccccc2)c(=O)c1-c1ccc(C[C@H](NC(=O)c2c(Cl)cccc2Cl)C(=O)O)cc1 [Cpd 197]	> 1000 nM	1320 nM	–	–
COc1cnn(C)c(=O)c1-c1ccc(C[C@H](NC(=O)C2CCNCC2)C(=O)O)cc1 [Cpd 198]	> 5000 nM	1340 nM	–	–
